Test results as given in paper PMC11246312, “Anthracene detoxification by Laccases from indigenous fungal strains Trichoderma lixii FLU1 and Talaromyces pinophilus FLU12” (Biodegradation, 2024).

Columns and labels:
TlFLU1L = tested on: T1, TlFLU1L; assay: residual anthracene by UV absorbance at […] nm after ethyl acetate extraction; Michaelis-Menten fit; format: biochemical, Trichoderma lixii; settings: no mediator; anthracene 50-400 mg/L, Na-acetate 50 mM pH 5, Tween 80 1%, 30 °C, laccase 3 U, 96 h
T1 construct: native secreted enzyme purified from anthracene-induced culture (ammonium sulfate, DEAE, Sephadex G-100); yellow laccase; 44 kDa by SDS-PAGE

TpFLU12L = tested on: T2, TpFLU12L; assay: as above; format: biochemical, Talaromyces pinophilus; settings: no mediator; anthracene 50-400 mg/L, Na-acetate 50 mM pH 5, Tween 80 1%, 30 °C, laccase 3 U, 96 h
T2 construct: native secreted enzyme purified from anthracene-induced culture (ammonium sulfate, DEAE, Sephadex G-100); blue laccase

c1ccc2cc3ccccc3cc2c1 [anthracene]
Km (mg/L) / TlFLU1 (TlFLU1L): 173.2 ± 0.06 mg/L | Km (mg/L) / TpFLU12 (TpFLU12L): 73.3 ± 0.07 mg/L
